Where no end group is shown, it is not given here.
How the values were obtained:
Assay in all cases: Histone peptide microarray
Type in all cases: binding, human
[1] = test system: AIRE (PP); conditions: AIRE (PP); sheet "Array Heatmap"; each array performed twice, total n = 4
Excerpt: (§1) To more comprehensively define the histone interactions of the 31 PHD readers identified from the domain microarray analyses, we probed each on an alternate microarray platform containing a library of 293 synthetic histone peptides with single or combinatorial PTMs (Additional file 2: Figure S4 and Additional file 3: Table S2).
(§2) The 31 GST-tagged PHD readers identified in the PHD finger domain array were expressed and purified as previously. Histone peptide arrays and peptide pulldown assays were conducted as recently described (specifically, the optimized protocol from Petell et al. for the former).
(§3) Supplementary file 13072_2020_328_MOESM3_ESM.xlsx: Additional file 3: Table S2. […] Excel Tab Peptide List is a compiled list of the entire 293 histone peptide library with amino acid sequence ranges. […] Each number corresponds to the peptide number designated in Peptide List. Excel Tab Average Signals is a compiled set of binding data: chromatin reader at 0.5 μM vs. entire 293 peptide library. Data is presented as the average and standard deviation of 4 replicates. The average signals are colored to indicate signal intensity with green being strong and white being weak/low. […] Key: red= stronger relative binding; blue = weaker relative binding. Excel Tab Array info summary is a table summarizing the domains, sequence coverage, array signal range, and noise for each of the GST-tagged readers assayed on the peptide microarrays.

[2] = test system: BAZ2B; conditions: BAZ2B; sheet "Array Heatmap"; each array performed twice, total n = 4
Excerpt: as §1, §2, §3

[3] = test system: BPTF (PB); conditions: BPTF (PB); sheet "Array Heatmap"; each array performed twice, total n = 4
Excerpt: as §1, §2, §3

[4] = test system: CHD4 (PPCC); conditions: CHD4 (PPCC); sheet "Array Heatmap"; each array performed twice, total n = 4
Excerpt: as §1, §2, §3

[5] = test system: CHD5 (PCC); conditions: CHD5 (PCC); sheet "Array Heatmap"; each array performed twice, total n = 4
Excerpt: as §1, §2, §3

[6] = test system: CHD5 (PPCC); conditions: CHD5 (PPCC); sheet "Array Heatmap"; each array performed twice, total n = 4
Excerpt: as §1, §2, §3

[7] = test system: DIDO1; conditions: DIDO1; sheet "Array Heatmap"; each array performed twice, total n = 4
Excerpt: as §1, §2, §3

[8] = test system: DPF2 (PPC2W2); conditions: DPF2 (PPC2W2); sheet "Array Heatmap"; each array performed twice, total n = 4
Excerpt: as §1, §2, §3

[9] = test system: ING1; conditions: ING1; sheet "Array Heatmap"; each array performed twice, total n = 4
Excerpt: as §1, §2, §3

[10] = test system: ING2; conditions: ING2; sheet "Array Heatmap"; each array performed twice, total n = 4
Excerpt: as §1, §2, §3

[11] = test system: ING3; conditions: ING3; sheet "Array Heatmap"; each array performed twice, total n = 4
Excerpt: as §1, §2, §3

[12] = test system: ING4; conditions: ING4; sheet "Array Heatmap"; each array performed twice, total n = 4
Excerpt: as §1, §2, §3

[13] = test system: ING5; conditions: ING5; sheet "Array Heatmap"; each array performed twice, total n = 4
Excerpt: as §1, §2, §3

[14] = test system: KDM4C (TTP); conditions: KDM4C (TTP); sheet "Array Heatmap"; each array performed twice, total n = 4
Excerpt: as §1, §2, §3

[15] = test system: KDM5A (1); conditions: KDM5A (1); sheet "Array Heatmap"; each array performed twice, total n = 4
Excerpt: as §1, §2, §3

[16] = test system: KDM5A (3); conditions: KDM5A (3); sheet "Array Heatmap"; each array performed twice, total n = 4
Excerpt: as §1, §2, §3

[17] = test system: KDM5B (1); conditions: KDM5B (1); sheet "Array Heatmap"; each array performed twice, total n = 4
Excerpt: as §1, §2, §3

[18] = test system: KDM5B (3); conditions: KDM5B (3); sheet "Array Heatmap"; each array performed twice, total n = 4
Excerpt: as §1, §2, §3

[19] = test system: KDM7A; conditions: KDM7A; sheet "Array Heatmap"; each array performed twice, total n = 4
Excerpt: as §1, §2, §3

[20] = test system: MLL5; conditions: MLL5; sheet "Array Heatmap"; each array performed twice, total n = 4
Excerpt: as §1, §2, §3

[21] = test system: MORC3 (CW); conditions: MORC3 (CW); sheet "Array Heatmap"; each array performed twice, total n = 4
Excerpt: as §1, §2, §3

[22] = test system: PHF13; conditions: PHF13; sheet "Array Heatmap"; each array performed twice, total n = 4
Excerpt: as §1, §2, §3

[23] = test system: PHF21A; conditions: PHF21A; sheet "Array Heatmap"; each array performed twice, total n = 4
Excerpt: as §1, §2, §3

[24] = test system: PHF23; conditions: PHF23; sheet "Array Heatmap"; each array performed twice, total n = 4
Excerpt: as §1, §2, §3

[25] = test system: PHF2; conditions: PHF2; sheet "Array Heatmap"; each array performed twice, total n = 4
Excerpt: as §1, §2, §3

[26] = test system: PHF8; conditions: PHF8; sheet "Array Heatmap"; each array performed twice, total n = 4
Excerpt: as §1, §2, §3

[27] = test system: PHRF1 (RP); conditions: PHRF1 (RP); sheet "Array Heatmap"; each array performed twice, total n = 4
Excerpt: as §1, §2, §3

[28] = test system: RAG2; conditions: RAG2; sheet "Array Heatmap"; each array performed twice, total n = 4
Excerpt: as §1, §2, §3

[29] = test system: SP140L; conditions: SP140L; sheet "Array Heatmap"; each array performed twice, total n = 4
Excerpt: as §1, §2, §3

[30] = test system: TAF3; conditions: TAF3; sheet "Array Heatmap"; each array performed twice, total n = 4
Excerpt: as §1, §2, §3

[31] = test system: TRIM66 (PB); conditions: TRIM66 (PB); sheet "Array Heatmap"; each array performed twice, total n = 4
Excerpt: as §1, §2, §3

Substance	Array Heatmap value (peptide array signal) [1]	Array Heatmap value (peptide array signal) [2]	Array Heatmap value (peptide array signal) [3]	Array Heatmap value (peptide array signal) [4]	Array Heatmap value (peptide array signal) [5]	Array Heatmap value (peptide array signal) [6]	Array Heatmap value (peptide array signal) [7]	Array Heatmap value (peptide array signal) [8]	Array Heatmap value (peptide array signal) [9]	Array Heatmap value (peptide array signal) [10]	Array Heatmap value (peptide array signal) [11]	Array Heatmap value (peptide array signal) [12]	Array Heatmap value (peptide array signal) [13]	Array Heatmap value (peptide array signal) [14]	Array Heatmap value (peptide array signal) [15]	Array Heatmap value (peptide array signal) [16]	Array Heatmap value (peptide array signal) [17]	Array Heatmap value (peptide array signal) [18]	Array Heatmap value (peptide array signal) [19]	Array Heatmap value (peptide array signal) [20]	other results
H2A.X (1-17): H2AX 1-17 (SGRGKTGGKARAKAKSR; UniProt P16104 2-18, looked up, fragment)	0.5574	0.5024	0.3452	0.5416	0.8255	0.5657	0.6032	0.6636	0.4806	0.5852	0.4419	0.4775	0.3684	0.5423	0.4987	0.4093	0.6651	0.4974	0.5198	0.5474	Array Heatmap value (peptide array signal) [21]: 0.3549; Array Heatmap value (peptide array signal) [22]: 0.6046; Array Heatmap value (peptide array signal) [23]: 0.4705; Array Heatmap value (peptide array signal) [24]: 0.4786; Array Heatmap value (peptide array signal) [25]: 0.3941; Array Heatmap value (peptide array signal) [26]: 0.3196; Array Heatmap value (peptide array signal) [27]: 0.3918; Array Heatmap value (peptide array signal) [28]: 0.2388; Array Heatmap value (peptide array signal) [29]: 0.3804; Array Heatmap value (peptide array signal) [30]: 0.2689; Array Heatmap value (peptide array signal) [31]: 0.5377
H2A.X K5ac: H2AX 1-17 (SGRGK(Ac)TGGKARAKAKSR; UniProt P16104 2-18, looked up, fragment)	0.4642	0.4631	0.3356	0.5228	0.7832	0.549	0.6192	0.6362	0.4851	0.5785	0.4453	0.4505	0.3639	0.5139	0.4768	0.4343	0.7034	0.4746	0.4169	0.5039	Array Heatmap value (peptide array signal) [21]: 0.3506; Array Heatmap value (peptide array signal) [22]: 0.5821; Array Heatmap value (peptide array signal) [23]: 0.4552; Array Heatmap value (peptide array signal) [24]: 0.5099; Array Heatmap value (peptide array signal) [25]: 0.3936; Array Heatmap value (peptide array signal) [26]: 0.3518; Array Heatmap value (peptide array signal) [27]: 0.4233; Array Heatmap value (peptide array signal) [28]: 0.2437; Array Heatmap value (peptide array signal) [29]: 0.3645; Array Heatmap value (peptide array signal) [30]: 0.2702; Array Heatmap value (peptide array signal) [31]: 0.5335

From publication PMC6979384, “Characterization of the plant homeodomain (PHD) reader family for their histone tail interactions” (Epigenetics & Chromatin, 2020)
